One series deals with EZH2. Conditions: cited from earlier work.
The test system of the next series is p300 HAT. Particulars: cited from earlier work.
For a further series, the target named is T1, PCAF (Homo sapiens, UniProt Q92831).
T1 construct: PCAF (aa 492–658, 250 nM); purchased Reaction Biology Corporation
Nature of the series: HotSpot HAT activity assay, PCAF. The class given is biochemical. Conditions: 10-dose, from 200 μM; histone H3, [acetyl-3H]-acetyl-CoA. As for the experimental part:
(§1) The newly synthesized compounds 4a–n were tested to determine their effects against acetylation and methylation epigenetic targets. First, 4a–n were screened in vitro against the two HAT enzymes p300 and PCAF. […] To determine the activity against SIRT1 and -2, 4a–n were tested starting from 200 μM solutions using a modified Fluor de Lys fluorescence-based assay with amino acids 379–382 (Arg-His-Lys-Lys(Ac)) of human p53 conjugated with aminomethylcoumarin as substrate and NAD^+ as co-substrate. […] Furthermore, 4a–n were tested against a human five-membered Polycomb repressive complex 2 (PRC2) containing EZH2, embryonic ectoderm development (EED), suppressor of zeste 12 (SUZ12), RbAp48, and adipocyte enhancer-binding protein (AEBP2), to assess their capability to inhibit the catalytic unit EZH2.
(§2) The effect of tested derivatives on the catalytic activity of p300 and PCAF was determined in a HotSpot HAT activity assay by Reaction Biology Corporation (Malvern, PA, USA) according to the company’s standard operating procedure. In brief, the recombinant catalytic domains of PCAF (aa 492–658, 250 nM) or p300 (aa 1284–1673, 30 nM) were incubated with histone H3 as substrate (5 µM) and [Acetyl-^3H]-Acetyl Coenzyme A (3 µM) as an acetyl donor in reaction buffer (50 mM Tris-HCl (pH 8.0), 50 mM NaCl, 0.1 mM EDTA, 1 mM DTT, 1 mM PMSF, 1% DMSO) for 1 h at 30 °C in the presence or absence of a dose titration of the compounds. The reaction mixture was delivered to filter-paper for detection. IC50 values were analyzed using Excel and GraphPad Prism 6.0 software (GraphPad Software Inc., San Diego, CA, USA). The experiments for p300 were performed in triplicate.

For series [1], the target named is T2, CARM1 (Homo sapiens, UniProt Q86X55).
T2 sequence (Q86X55 1-608): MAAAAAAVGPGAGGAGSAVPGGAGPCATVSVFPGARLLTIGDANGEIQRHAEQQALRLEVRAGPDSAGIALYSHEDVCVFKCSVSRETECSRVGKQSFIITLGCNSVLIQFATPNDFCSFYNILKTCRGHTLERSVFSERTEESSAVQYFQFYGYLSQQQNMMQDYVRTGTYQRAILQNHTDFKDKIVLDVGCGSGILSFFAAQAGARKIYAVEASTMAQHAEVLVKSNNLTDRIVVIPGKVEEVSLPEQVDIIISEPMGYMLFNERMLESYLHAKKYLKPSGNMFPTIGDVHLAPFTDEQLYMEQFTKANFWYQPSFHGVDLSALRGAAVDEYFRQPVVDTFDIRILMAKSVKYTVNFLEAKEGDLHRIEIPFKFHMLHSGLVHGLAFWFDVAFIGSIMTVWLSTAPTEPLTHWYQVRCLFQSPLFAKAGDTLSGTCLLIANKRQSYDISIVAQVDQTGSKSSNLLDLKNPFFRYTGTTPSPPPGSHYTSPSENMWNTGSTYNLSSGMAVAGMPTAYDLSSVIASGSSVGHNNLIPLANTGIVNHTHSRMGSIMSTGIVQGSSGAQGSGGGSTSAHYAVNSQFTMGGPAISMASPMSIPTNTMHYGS
Nature of the series: CARM1 assay (histone H3, 3H-SAM). The class given is biochemical. How it is done:
Histone H3 (5 μM) was added in freshly prepared reaction buffer (50 mM Tris-HCl (pH 8.5), 5 mM MgCl2, 50 mM NaCl, 0.01% Brij35, 1 mM DTT, 1% DMSO). CARM1 was delivered into the substrate solution and the mixture was mixed gently. Afterwards, the tested compounds dissolved in DMSO were delivered into the enzyme/substrate reaction mixture by using Acoustic Technology (Echo 550, LabCyte Inc. Sunnyvale, CA) in nanoliter range, and 1 µM ^3H-SAM was also added into the reaction mixture to initiate the reaction. The reaction mixture was incubated for 1 h at 30 °C and then it was delivered to filter-paper for detection. The data were analyzed using Excel and GraphPad Prism software for IC50 curve fits. The experiments were performed in triplicate.

The next series has as its target T3, SIRT1 (Homo sapiens, UniProt Q96EB6).
T3 construct: host or cells: E. coli
Nature of the series: Modified Fluor de Lys fluorescence-based assay, SIRT1. The class given is biochemical. Particulars: from 200 μM; p53 379-382 AMC substrate, NAD+. As for the experimental part:
as §1
(§3) The SIRT inhibition assay was performed using human recombinant SIRT1 and SIRT2 produced in E. coli. Compounds were tested using a modified Fluor de Lys fluorescence-based assay kit based on the method described in the BioMol product sheet (AK-555, AK-556, Milan, Italy). […] The second stage is initiated by the addition of the Developer II (KI176), including nicotinamide (NAM), nicotinamide that stops the SIRT1/2 activity, and the fluorescent signal is produced. The fluorescence was measured on a fluorometric reader (Infinite 200 TECAN, Männedorf, Switzerland) with excitation set at 360 nm and emission detection set at 460 nm.

In the next series the target is T4, SIRT2 (Homo sapiens, UniProt Q8IXJ6).
T4 construct: host or cells: E. coli
T4 sequence (Q8IXJ6 whole entry): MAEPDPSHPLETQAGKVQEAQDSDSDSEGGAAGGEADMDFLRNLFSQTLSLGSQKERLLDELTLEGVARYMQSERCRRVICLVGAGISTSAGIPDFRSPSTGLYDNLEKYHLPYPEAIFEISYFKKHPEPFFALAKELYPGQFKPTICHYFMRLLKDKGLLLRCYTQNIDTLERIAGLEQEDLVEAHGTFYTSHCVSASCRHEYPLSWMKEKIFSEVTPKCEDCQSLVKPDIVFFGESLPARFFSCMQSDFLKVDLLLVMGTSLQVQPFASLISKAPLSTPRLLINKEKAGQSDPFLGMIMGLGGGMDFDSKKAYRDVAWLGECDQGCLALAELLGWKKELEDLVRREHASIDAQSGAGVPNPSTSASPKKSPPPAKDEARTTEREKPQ
Nature of the series: Modified Fluor de Lys fluorescence-based assay, SIRT2. Format: biochemical. Conditions: from 200 μM; p53 379-382 AMC substrate, NAD+. How it is done:
as §1, §3

Series [2] deals with T5, p300 (Homo sapiens, UniProt Q09472).
T5 construct: p300 (aa 1284–1673, 30 nM); purchased Reaction Biology Corporation
T5 sequence (Q09472 1284-1673): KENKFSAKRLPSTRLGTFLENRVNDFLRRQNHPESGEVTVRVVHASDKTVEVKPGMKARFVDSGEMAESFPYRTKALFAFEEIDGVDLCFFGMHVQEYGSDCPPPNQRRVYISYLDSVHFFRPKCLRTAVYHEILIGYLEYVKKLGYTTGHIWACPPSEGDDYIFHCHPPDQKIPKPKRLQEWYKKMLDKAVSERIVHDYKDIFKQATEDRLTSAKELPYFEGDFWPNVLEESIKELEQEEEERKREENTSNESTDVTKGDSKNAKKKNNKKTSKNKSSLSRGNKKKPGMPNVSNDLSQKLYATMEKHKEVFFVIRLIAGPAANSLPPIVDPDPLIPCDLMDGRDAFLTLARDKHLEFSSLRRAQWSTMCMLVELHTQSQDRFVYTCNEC
The series can be described thus: HotSpot HAT activity assay, p300. The class given is biochemical. Particulars: 10-dose, triplicate, from 200 μM; histone H3, [acetyl-3H]-acetyl-CoA. As for the experimental part:
as §1, §2

In a further series the target is PRC2/EZH2 (Homo sapiens, UniProt Q15910). The series can be described thus: EZH2/PRC2 assay (core histone, 3H-SAM). Format: biochemical. Conditions: 10-dose, duplicate, from 400 μM. How it is done:
as §1
The EZH2 substrate (0.05 mg/mL core histone) was added in the freshly prepared reaction buffer (50 mM Tris-HCl (pH 8.0), 50 mM NaCl, 1 mM EDTA, 1 mM DTT, 1 mM PMSF, 1% DMSO). The PRC2 complex (complex of human EZH2, human EED, human SUZ12, human AEBP2, and human RbAp48) was delivered into the substrate solution and the mixture was mixed gently. Afterwards, the tested compounds dissolved in DMSO were delivered into the enzyme/substrate reaction mixture by using Acoustic Technology (Echo 550, LabCyte Inc. Sunnyvale, CA, USA) in nanoliter range, and ^3H-SAM was added into the reaction mixture to initiate the reaction. The reaction mixture was incubated for 1 h at 30 °C and then it was delivered to filter-paper for detection. The data were analyzed using Excel and GraphPad Prism software for IC50 curve fits. The experiments were performed in duplicate.

The test system of another series is MCF-7 cells. Nature of the series: Cell cycle and apoptosis (sub-G1) analysis by FACS in MCF-7 cells. The class given is cell-based, human. Conditions: 5 μM, 30 h. As for the experimental part:
(§4) Compounds 4a–n were tested at 5 μM for 30 h in NB4 […] and U937 AML cells among hematological cancers, and in MCF-7 breast cancer and SH-SY5Y neuroblastoma cells among solid cancers, to determine their effects in cell cycle and apoptosis induction.
(§5) In the same cell lines, the induction of apoptosis has been evaluated through the percentage of the sub-G1 peaks.
(§6) For colorimetric exclusion, the cells (2 × 10^5 cells/mL) were plated in multiwells in triplicate. After stimulations at different times and concentrations, cells were diluted in the ratio 1:1 in Trypan Blue (Sigma) and counted with an optical microscope. For cell cycle analyses, cells were plated (2 × 10^5 cells/mL) and were harvested, centrifuged at 1200 rpm for 5 min and resuspended in 500 μL of a hypotonic solution containing 1× PBS, Sodium Citrate 0.1%, 0.1% NP-40, RNAase A and […] Propidium Iodide (PI). After 30 min at room temperature (RT) in the dark, samples were acquired by FACS-Calibur (BD Bioscences, San Jose, CA, USA) using CellQuest software (BD Biosciences). The percentage in different phases of the cell cycle was determined by ModFit LT V3 software (Verity). All experiments were performed in triplicate. Cell death was measured as percentage of cells in sub-G1 phase as in [30].
On the technique in general: Flow cytometry measures light scatter and fluorescence of single cells or particles in a stream.

For series [3], the system named is CARM1. Nature of the series: Western blot of H3R17me2 (CARM1) in MCF-7 cells. The class given is cell-based, human. Conditions: 5 μM, 30 h. As for the experimental part: (§7) In MCF-7 cells, the levels of acetyl-H3, acetyl-H4, H3K27me3, and H3R17me2 were detected by western blot analyses as functional tests for p300 (acH3 and acH4), EZH2 (H3K27me3) and CARM1 (H3R17me2) inhibition in cells, respectively (Figure 5).
(§8) The procedures were performed as described in [30, 31]. Primary antibodies used were: Ac-H3 (Millipore, Milan, Italy); Ac-H4 (Millipore, Milan, Italy); Ac-H3K9-14 (Diagenode, Ougrée, Belgium); Ac-α-tubulin (Sigma-Aldrich), H3K27me3 (Diagenode); H3R17me2 (Diagenode); EZH2 (Abcam, Cambridge, UK). H3 (Sigma-Aldrich), H4 (Abcam), GAPDH (Sigma) and ERKs (Santa Cruz, Biotechnology, TX, USA) were used to normalize the total protein extracts (see also Supplementary Material).

The test system of series [4] is p300. Nature of the series: Western blot of acetylation marks (p300 inhibition) in MCF-7 cells. Format: cell-based, human. Conditions: 5 μM, 30 h. As for the experimental part:
as §7, §8

For another series, the system named is NB4 cells. Nature of the series: Cell cycle and apoptosis (sub-G1) analysis by FACS in NB4 cells. The class given is cell-based, human. Particulars: 5 μM, 30 h. As for the experimental part:
as §4, §5, §6

As usually defined, the IC50 is the concentration that inhibits the measured activity by half. By melting point is commonly meant the temperature of the solid-liquid transition.

T3 sequence (Q96EB6 whole entry): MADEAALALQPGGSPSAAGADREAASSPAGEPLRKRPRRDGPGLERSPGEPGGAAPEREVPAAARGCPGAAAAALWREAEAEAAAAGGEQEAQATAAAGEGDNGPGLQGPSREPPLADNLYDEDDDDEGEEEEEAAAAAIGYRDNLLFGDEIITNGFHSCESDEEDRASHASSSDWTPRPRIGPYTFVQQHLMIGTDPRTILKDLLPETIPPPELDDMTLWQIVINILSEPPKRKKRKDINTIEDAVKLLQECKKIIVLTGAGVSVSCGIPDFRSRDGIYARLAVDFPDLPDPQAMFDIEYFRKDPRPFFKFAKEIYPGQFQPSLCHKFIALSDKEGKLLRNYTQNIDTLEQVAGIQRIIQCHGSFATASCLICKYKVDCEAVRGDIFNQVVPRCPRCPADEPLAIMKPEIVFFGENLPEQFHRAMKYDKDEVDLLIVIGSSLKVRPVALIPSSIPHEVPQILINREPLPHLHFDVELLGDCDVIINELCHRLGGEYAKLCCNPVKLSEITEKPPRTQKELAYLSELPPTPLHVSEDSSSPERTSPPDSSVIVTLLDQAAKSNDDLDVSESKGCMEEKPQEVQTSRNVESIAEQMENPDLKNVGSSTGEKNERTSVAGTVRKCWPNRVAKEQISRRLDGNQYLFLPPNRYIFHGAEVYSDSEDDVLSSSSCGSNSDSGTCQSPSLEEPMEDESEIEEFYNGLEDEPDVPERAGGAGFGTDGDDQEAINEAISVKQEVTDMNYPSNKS
Sequence of PRC2/EZH2 (Q15022 whole entry): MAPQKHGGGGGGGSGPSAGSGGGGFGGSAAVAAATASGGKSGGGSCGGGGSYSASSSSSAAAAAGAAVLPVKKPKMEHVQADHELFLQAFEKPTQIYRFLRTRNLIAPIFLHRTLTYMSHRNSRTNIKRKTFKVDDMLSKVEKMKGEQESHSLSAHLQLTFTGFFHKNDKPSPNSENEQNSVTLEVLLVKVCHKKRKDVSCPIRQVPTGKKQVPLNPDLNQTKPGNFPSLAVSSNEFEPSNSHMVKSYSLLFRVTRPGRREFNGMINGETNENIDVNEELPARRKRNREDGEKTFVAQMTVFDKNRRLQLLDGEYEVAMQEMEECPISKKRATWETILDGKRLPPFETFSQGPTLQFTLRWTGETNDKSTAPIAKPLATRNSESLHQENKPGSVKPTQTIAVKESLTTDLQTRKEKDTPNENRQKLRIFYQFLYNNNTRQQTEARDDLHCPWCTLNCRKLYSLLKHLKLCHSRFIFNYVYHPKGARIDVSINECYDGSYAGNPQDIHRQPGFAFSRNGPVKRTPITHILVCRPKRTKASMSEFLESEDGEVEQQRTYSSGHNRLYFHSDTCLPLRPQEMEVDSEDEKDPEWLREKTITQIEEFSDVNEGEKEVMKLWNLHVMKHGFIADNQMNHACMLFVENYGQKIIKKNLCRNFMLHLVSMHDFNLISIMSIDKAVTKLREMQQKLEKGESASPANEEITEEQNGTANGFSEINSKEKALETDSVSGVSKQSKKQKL
Sequence of PRC2/EZH2 (Q09028 whole entry, further chain): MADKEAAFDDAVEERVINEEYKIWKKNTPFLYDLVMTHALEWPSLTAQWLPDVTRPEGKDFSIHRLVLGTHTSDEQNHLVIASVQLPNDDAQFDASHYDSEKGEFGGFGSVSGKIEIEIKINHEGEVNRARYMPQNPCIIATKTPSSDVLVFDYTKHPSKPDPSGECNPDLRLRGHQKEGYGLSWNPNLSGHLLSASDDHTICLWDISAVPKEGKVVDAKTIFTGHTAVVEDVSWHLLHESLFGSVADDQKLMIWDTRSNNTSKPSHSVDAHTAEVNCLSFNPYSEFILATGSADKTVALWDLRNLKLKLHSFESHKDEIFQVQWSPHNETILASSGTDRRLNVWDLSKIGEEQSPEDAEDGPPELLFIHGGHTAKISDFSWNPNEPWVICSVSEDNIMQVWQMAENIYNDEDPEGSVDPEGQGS
Sequence of PRC2/EZH2 (Q6ZN18 whole entry, further chain): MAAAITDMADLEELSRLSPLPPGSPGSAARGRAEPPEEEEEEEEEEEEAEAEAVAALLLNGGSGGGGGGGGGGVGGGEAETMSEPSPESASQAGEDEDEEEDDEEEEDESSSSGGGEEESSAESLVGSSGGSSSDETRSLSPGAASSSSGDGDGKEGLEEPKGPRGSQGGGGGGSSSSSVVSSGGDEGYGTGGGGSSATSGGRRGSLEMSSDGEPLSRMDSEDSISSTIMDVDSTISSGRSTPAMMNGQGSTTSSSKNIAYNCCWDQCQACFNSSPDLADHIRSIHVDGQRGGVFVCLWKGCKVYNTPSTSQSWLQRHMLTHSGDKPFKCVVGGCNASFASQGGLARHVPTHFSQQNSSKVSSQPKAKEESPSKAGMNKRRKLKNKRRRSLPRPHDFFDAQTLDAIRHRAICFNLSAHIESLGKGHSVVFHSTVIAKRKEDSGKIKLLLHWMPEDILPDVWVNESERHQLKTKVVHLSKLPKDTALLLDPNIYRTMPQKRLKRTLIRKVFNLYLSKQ
Sequence of PRC2/EZH2 (Q15910 whole entry): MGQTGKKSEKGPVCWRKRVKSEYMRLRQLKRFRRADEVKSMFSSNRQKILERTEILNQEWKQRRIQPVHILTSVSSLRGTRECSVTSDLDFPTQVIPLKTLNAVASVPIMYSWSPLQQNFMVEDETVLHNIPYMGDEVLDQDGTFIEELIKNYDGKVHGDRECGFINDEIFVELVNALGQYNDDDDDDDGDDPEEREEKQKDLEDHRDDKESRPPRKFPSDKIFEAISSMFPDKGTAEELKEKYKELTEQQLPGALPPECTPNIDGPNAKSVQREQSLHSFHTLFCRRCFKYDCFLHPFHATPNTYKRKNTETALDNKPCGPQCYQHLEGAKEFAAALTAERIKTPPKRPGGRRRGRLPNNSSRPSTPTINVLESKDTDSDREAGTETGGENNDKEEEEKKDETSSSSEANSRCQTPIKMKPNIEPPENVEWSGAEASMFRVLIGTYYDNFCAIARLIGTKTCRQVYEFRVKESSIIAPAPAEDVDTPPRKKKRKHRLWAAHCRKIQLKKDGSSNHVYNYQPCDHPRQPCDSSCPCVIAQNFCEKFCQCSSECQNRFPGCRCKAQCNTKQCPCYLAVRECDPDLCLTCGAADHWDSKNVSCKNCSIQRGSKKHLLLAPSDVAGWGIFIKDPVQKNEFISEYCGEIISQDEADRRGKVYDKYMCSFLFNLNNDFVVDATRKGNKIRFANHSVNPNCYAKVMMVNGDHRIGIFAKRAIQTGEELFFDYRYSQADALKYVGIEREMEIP
Sequence of PRC2/EZH2 (O75530 whole entry, further chain): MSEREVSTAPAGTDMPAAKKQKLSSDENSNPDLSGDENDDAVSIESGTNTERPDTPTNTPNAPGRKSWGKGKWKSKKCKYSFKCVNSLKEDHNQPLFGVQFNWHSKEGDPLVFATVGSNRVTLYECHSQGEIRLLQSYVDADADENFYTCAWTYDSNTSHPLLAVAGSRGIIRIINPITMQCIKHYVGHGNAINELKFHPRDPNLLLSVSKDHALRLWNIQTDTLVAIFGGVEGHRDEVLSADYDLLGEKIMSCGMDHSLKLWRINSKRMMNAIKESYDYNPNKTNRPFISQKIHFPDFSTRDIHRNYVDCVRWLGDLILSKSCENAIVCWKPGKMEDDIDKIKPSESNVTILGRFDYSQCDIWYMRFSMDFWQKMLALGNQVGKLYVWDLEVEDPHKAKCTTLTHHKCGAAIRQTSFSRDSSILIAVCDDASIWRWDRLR
T1 sequence (Q92831 492-658): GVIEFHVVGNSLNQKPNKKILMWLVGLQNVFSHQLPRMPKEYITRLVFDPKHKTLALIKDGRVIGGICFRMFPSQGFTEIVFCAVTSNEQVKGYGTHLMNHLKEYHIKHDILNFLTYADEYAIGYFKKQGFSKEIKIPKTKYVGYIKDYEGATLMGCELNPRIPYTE

With `O=C1/C(=C/c2cccc(Br)c2)CN(Cc2ccccc2)C/C1=C\c1cccc(Br)c1` [Compound 3, 1-benzyl-3,5-bis((E)-3-bromobenzylidene)piperidin-4-one], the “EZH2 inhibition (in words)” value in the series on EZH2 was “dual p300/EZH2 inhibitor”. Also, in the series with p300 HAT, the “p300 inhibition (in words)” value is given as “dual p300/EZH2 inhibitor”.
`O=C1/C(=C/c2ccccc2Br)COC/C1=C\c1ccccc1Br` [Compound 4b, 3,5-bis((E)-2-bromobenzylidene)tetrahydro-4H-pyran-4-one]: the IC50 is greater than 200 µM at PCAF; 23.3 ± 0.5 µM against CARM1 [1]; greater than 200 µM against SIRT1; greater than 200 µM against SIRT2; 2.56 ± 0.23 µM against p300 [2].
With `O=C1/C(=C/c2ccccc2Br)CCC/C1=C\c1ccccc1Br` [Compound 4a, 2,6-bis((E)-2-bromobenzylidene)cyclohexan-1-one], the IC50 is greater than 200 µM on PCAF; 117 ± 6 µM at PRC2/EZH2; 16.8 ± 3.4 µM at CARM1 [1]; greater than 200 µM against SIRT1; greater than 200 µM against SIRT2; 1.38 ± 0.24 µM against p300 [2]. The “cell cycle: block in G1/S phase with almost total absence of cells in the G2/M phase” value (“cell cycle: block in G1/S phase” below) with MCF-7 cells was “almost total absence of cells”.
For `CCCCCCCCCCCCCCCc1cccc(O)c1C(=O)O` [anacardic acid, reference compound], on PCAF, the IC50 was found to be 40 ± 10.9 µM.
Take `O=C1/C(=C/c2ccccc2Br)CN(CCC(=O)c2ccccc2)C/C1=C\c1ccccc1Br` [Compound 4i, 3,5-Bis((E)-2-bromobenzylidene)-1-(3-oxo-3-phenylpropyl)piperidin-4-one]: the melting point lay within 95 to 97 °C. On PCAF, the IC50 was greater than 200 µM. Moreover, the “levels of H3R17me2” value in the series on CARM1 [3] is given as “most effective”. Besides, on PRC2/EZH2, the IC50 was 60.6 ± 10.5 µM. Also, in the series on p300 [4], the “levels of acetyl-H4” value was “decrease of the acetylation levels” and the “levels of acetyl-α-tubulin” value is given as “decrease of the acetylation levels”. Moreover, half-maximal inhibition against CARM1 [1] (IC50) was put at 6.96 ± 0.9 µM. The same compound showed an IC50 against SIRT1 greater than 200 µM. At SIRT2, this compound registered an IC50 greater than 200 µM. Inhibition against p300 [2] was half-maximal at 1.57 ± 0.72 µM (IC50).
On to `CN1C/C(=C\c2ccccc2Br)C(=O)/C(=C/c2ccccc2Br)C1` [Compound 4d, 3,5-bis((E)-2-bromobenzylidene)-1-methylpiperidin-4-one], for which the IC50 at PCAF was greater than 200 µM; at PRC2/EZH2 it was 46.7 ± 1.1 µM; against CARM1 [1] it was 3.24 ± 1.22 µM; at SIRT1, greater than 200 µM; at SIRT2, greater than 200 µM; against p300 [2], 2.66 ± 0.15 µM. Further, in the series with MCF-7 cells, the “cell cycle: block in G1/S phase” value was “almost total absence of cells”. Further, the “induction of apoptosis, % sub-G1 peaks” value with NB4 cells is on record as 30 to 40%.
Turning to `O=C1/C(=C/c2ccccc2Br)CNC/C1=C\c1ccccc1Br` [Compound 4c, 3,5-bis((E)-2-bromobenzylidene)piperidin-4-one], the concentration for half-maximal inhibition (IC50) on PCAF is greater than 200 µM; at CARM1 [1], 44.8 ± 6 µM; against SIRT1 it was greater than 200 µM; against SIRT2 it was greater than 200 µM; against p300 [2], 23.2 ± 0.51 µM. For the same compound, the “cell cycle: block in G1/S phase” value in the series with MCF-7 cells is on record as “almost total absence of cells”.
